From patent publication US20210347709A1, “RADIOFLUORINATED GPC3-BINDING PEPTIDES FOR PET IMAGING OF HEPATOCELLULAR CARCINOMA” (University of Southern California, priority 2020, published 2021)
Like-named read-outs stand apart in the source and are kept apart here.

Assay: MicroPET/CT imaging and biodistribution, HepG2 tumor model
Type: in vivo, nude mice
Conditions: both sexes, BALB/c nude, mouse, iv, 5.55 MBq, total radioactivity; for tissue to tissue ratio at 1 h / tissue to tissue ratio at 0.5 h / tissue to tissue ratio at 2 h: HepG2 (GPC3+) tumor bearing mice; for tissue to tissue ratio at 1 h / tissue uptake at 1 h: 60 min; for tissue to tissue ratio at 0.5 h / tissue uptake at 0.5 h: 30 min; for tissue to tissue ratio at 2 h / tissue uptake at 2 h: 120 min; for tissue uptake at 0.5 h / tissue uptake at 1 h / tissue uptake at 2 h: HepG2 (GPC3+) tumor model, PET
Protocol: MicroPET/CT Imaging and Biodistribution. MicroPET/CT scans were carried out using a Siemens Inveon PET/CT scanner (Siemens, Germany). Tumor-bearing mice (n=3/group) were intravenously injected with 5.55 MBq of Al[^18F]F-GP2076 or Al[^18F]F-GP2633 under isoflurane anesthesia. A ten-minute static PET scan for each animal was acquired at 30, 60, and 120 min after the injection. 3-Dimensional ordered subset expectation maximization (3D-OSEM) algorithm was used for the PET reconstruction, and CT was applied for attenuation correction. Detailed procedures for the microPET/CT imaging and biodistribution are provided in ESM.
All animal experiments were conducted according to the guideline of the Nanfang Hospital Animal Ethics Committee at the Southern Medical University. Male or female BALB/c nude mice (about 4-6 weeks old) were obtained from the Laboratory Animal Center at Southern Medical University. The HepG2 and McA-RH7777 HCC xenografts were established by subcutaneous injection of 1×10^6 tumor cells into the left shoulder of nude mice. The animals were used for in vivo studies when the tumors reached a size of 0.5-1 cm in diameter (4-6 weeks after inoculation).
Inveon Research Workplace (IRW) 3.0 software (Siemens, Germany) was used to measure the regions of interest (ROIs) determined by superimposing the ellipsoid volume of interest (VOI) on the target tissues. The radioactivity concentrations were measured by the mean pixel intensity within each VOI and converted to dose/ml using a calibration constant. Assuming the tissue density of 1 g/ml, the ROI was then converted to dose per gram and normalized as the percent injected dose per gram (% ID/g). Tumor-to-nontarget uptake ratios, including tumor-to-muscle (T/M), tumor-to-liver (T/L), and tumor-to-kidneys (T/K) ratios, were calculated by dividing the radioactivity uptake in tumor by that in the corresponding normal tissue or organ.

[1] = HepG2 tumor / liver, read-out: Tumor-to-liver (T/L) uptake ratio
[2] = HepG2 tumor / muscle, read-out: Tumor-to-muscle (T/M) uptake ratio
[3] = intestine, read-out: Intestinal uptake
[4] = decay-corrected, read-out: Tumor uptake
[5] = kidneys, read-out: Kidneys uptake
[6] = muscle, read-out: Muscle uptake
[7] = tumor / kidneys, read-out: Tumor-to-kidneys (T/K) uptake ratio

CC(C)C[C@H](NC(=O)[C@H](CCCNC(=N)N)NC(=S)Nc1ccc(CC2CN(CC(=O)O)CCN(CC(=O)O)CCN2CC(=O)O)cc1)C(=O)N[C@@H](CC(N)=O)C(=O)N[C@H](C(=O)NCC(=O)NCC(=O)N[C@H](C(=O)N[C@@H](Cc1ccc(O)cc1)C(=O)N[C@@H](Cc1ccccc1)C(=O)N[C@@H](CC(C)C)C(=O)N[C@H](C(=O)N[C@H](C(=O)N[C@@H](CCCNC(=N)N)C(=O)N[C@@H](CCC(N)=O)C(=O)O)[C@@H](C)O)[C@@H](C)O)[C@@H](C)O)C(C)C (single isomer, unassigned) [Al[^18F]F-GP2076]
tissue to tissue ratio at 1 h (HepG2 tumor / kidneys, read-out: Tumor-to-kidneys (T/K) uptake ratio): 0.31 ± 0.04
tissue to tissue ratio at 0.5 h [1]: 0.43 ± 0.06
tissue to tissue ratio at 1 h [1]: 0.59 ± 0.14
tissue to tissue ratio at 2 h [1]: 0.46 ± 0.4
tissue to tissue ratio at 0.5 h [2]: 5.56 ± 1.36
tissue to tissue ratio at 1 h [2]: 5.13 ± 2.08
tissue to tissue ratio at 2 h [2]: 2.68 ± 0.29
tissue uptake at 0.5 h (bone, read-out: Bone uptake): 0.95 %ID/g
tissue uptake at 1 h (bone, read-out: Bone uptake): 0.35 %ID/g
tissue uptake at 2 h (bone, read-out: Bone uptake): 0.21 %ID/g
tissue uptake at 0.5 h (brain, read-out: Brain uptake): 0.63 %ID/g
tissue uptake at 1 h (brain, read-out: Brain uptake): 0.18 %ID/g
tissue uptake at 2 h (brain, read-out: Brain uptake): 0.13 %ID/g
tissue uptake at 0.5 h (heart, read-out: Heart uptake): 1.29 %ID/g
tissue uptake at 1 h (heart, read-out: Heart uptake): 1.05 %ID/g
tissue uptake at 2 h (heart, read-out: Heart uptake): 0.36 %ID/g
tissue uptake at 0.5 h [3]: 3.03 %ID/g
tissue uptake at 1 h [3]: 2.57 %ID/g
tissue uptake at 2 h [3]: 1.8 %ID/g
tissue uptake at 0.5 h [4]: 2.2 %ID/g
tissue uptake at 1 h [4]: 2.13 %ID/g
tissue uptake at 2 h [4]: 0.73 %ID/g
tissue uptake at 0.5 h [5]: 9.83 %ID/g
tissue uptake at 1 h [5]: 7.03 %ID/g
tissue uptake at 2 h [5]: 2.27 %ID/g
tissue uptake at 0.5 h (liver, read-out: Liver uptake): 5.1 %ID/g
tissue uptake at 1 h (liver, read-out: Liver uptake): 3.7 %ID/g
tissue uptake at 2 h (liver, read-out: Liver uptake): 2.07 %ID/g
tissue uptake at 0.5 h (lung, read-out: Lung uptake): 1.57 %ID/g
tissue uptake at 1 h (lung, read-out: Lung uptake): 0.78 %ID/g
tissue uptake at 2 h (lung, read-out: Lung uptake): 0.43 %ID/g
tissue uptake at 0.5 h [6]: 0.41 %ID/g
tissue uptake at 1 h [6]: 0.44 %ID/g
tissue uptake at 2 h [6]: 0.28 %ID/g
tissue to tissue ratio at 0.5 h [7]: 0.25 ± 0.11
tissue to tissue ratio at 2 h [7]: 0.46 ± 0.46
